This passage reports IC50 results from ChEMBL document CHEMBL3046527, “NAD+-dependent DNA ligase (Rv3014c) from M. tuberculosis: Strategies for inhibitor design” (Med Chem Res, 2008).

In this test the target is DNA ligase A (Mycobacterium tuberculosis, UniProt P9WNV1). Briefly: Inhibition of Mycobacterium tuberculosis LigA.

For orientation: IC50 means the concentration that inhibits the measured activity by half. In the case of `CCN(CC)CCCC(C)Nc1ccnc2c1C=CC(Cl)C2` (configuration not stated), the IC50 stood at 46 µM.

`CC1(C)O[C@H]2OC([C@H](CCO)NCCCN[C@H](CCO)C3O[C@@H]4OC(C)(C)O[C@@H]4[C@H]3OCc3ccccc3)[C@H](OCc3ccccc3)[C@H]2O1` (some centres not stated) yielded an IC50 of 46.2 µM.
